Measurements published in patent publication US7119189B2, “Metabotropic GABA [B] receptors, receptor-specific ligands and their uses” (Novartis AG, priority 1997, dated 2006).
Entries after “also recorded” stand apart in the source; their conditions may differ. Where two headings read alike, the source gives them in different places.

How the values were obtained:
[1] = system: native GABAB receptors (130K and 100K proteins); conditions: for competition with / displacement of [125I]CGP71872 at native receptors: FIG. 4b; for [125I]CGP71872 labelling in the presence of excess unlabelled antagonist: 1 μM (10^−6 M) competitor
Method: The incubation is terminated by centrifugation at 20 000×g for 10 min at 4° C. This step removed free unbound photoaffinity label. […] The suspension is centrifuged at 20 000×g for 10 min and resuspended at a concentration of 8 mg/ml protein in buffer. […] The labelled membranes could be stored at −80° C.

[2] = biological target: T1, recombinant GABABR1a receptors in membranes from COS 1 cells (Rattus norvegicus, UniProt Q9Z0U4); assay: biochemical; type: binding
T1 construct: The protein expressed from the 4,376 bp cDNA clone has an apparent molecular mass of about 120 kDa; expressed in transfected cells; host or cells: COS1 cells, transient transfection with the cDNA clone in pcDNAI
T1 sequence (Q9Z0U4 20-960): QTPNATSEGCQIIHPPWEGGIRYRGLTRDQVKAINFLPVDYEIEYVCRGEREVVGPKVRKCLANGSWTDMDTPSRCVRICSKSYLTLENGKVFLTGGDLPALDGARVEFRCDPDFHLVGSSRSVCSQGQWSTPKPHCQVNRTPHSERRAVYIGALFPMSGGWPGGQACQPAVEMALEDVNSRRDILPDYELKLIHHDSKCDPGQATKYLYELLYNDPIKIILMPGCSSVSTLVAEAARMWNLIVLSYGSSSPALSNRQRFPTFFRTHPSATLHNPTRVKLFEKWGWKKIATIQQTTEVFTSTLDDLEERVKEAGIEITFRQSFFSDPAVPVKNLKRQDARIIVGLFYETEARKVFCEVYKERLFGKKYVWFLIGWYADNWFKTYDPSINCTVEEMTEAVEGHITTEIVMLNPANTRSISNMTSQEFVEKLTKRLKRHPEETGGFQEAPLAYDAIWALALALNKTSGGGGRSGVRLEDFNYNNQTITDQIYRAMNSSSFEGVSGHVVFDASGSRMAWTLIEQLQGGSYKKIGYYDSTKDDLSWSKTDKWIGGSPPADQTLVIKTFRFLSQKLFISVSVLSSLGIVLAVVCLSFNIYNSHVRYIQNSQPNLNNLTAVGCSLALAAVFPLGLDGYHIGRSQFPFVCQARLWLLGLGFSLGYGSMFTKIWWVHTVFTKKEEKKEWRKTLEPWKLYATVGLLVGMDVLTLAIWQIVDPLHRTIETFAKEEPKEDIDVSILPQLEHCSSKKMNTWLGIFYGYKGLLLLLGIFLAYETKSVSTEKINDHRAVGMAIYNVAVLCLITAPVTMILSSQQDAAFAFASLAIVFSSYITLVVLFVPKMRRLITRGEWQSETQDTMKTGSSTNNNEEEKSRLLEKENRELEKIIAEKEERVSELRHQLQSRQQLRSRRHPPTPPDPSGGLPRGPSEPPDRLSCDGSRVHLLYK

GABABR1a = biological target: T2, GABABR1a (Rattus norvegicus, UniProt Q9Z0U4); assay: Forskolin-stimulated cAMP accumulation in HEK293 cells stably expressing GABABR1a; type: cell-based
T2 construct: The ability of GABABR1a stably expressed in HEK293 cells to reduce forskolin-stimulated cAMP accumulation is analysed; expressed in transfected cells
T2 sequence (Q9Z0U4 20-960): as above
Method: HEK293 cells stably expressing GABABR1a are treated with 20 μM forskolin (Fsk) to stimulate cAMP formation (100%). […] Bars represent mean values+S.E.M. of at least three independent experiments performed in quadruplicate.
GABAB receptors are described to inhibit adenylate cyclase activity, stimulate phospholipase A2, activate K^+-channels, inactivate voltage-dependent Ca^2+-channels and to modulate inositol phospholipid hydrolysis. As GABABR1a and -b have identical sequence in all domains predicted to be intracellular they are expected to be able to couple to the same effector systems. […] The ability of GABABR1a stably expressed in HEK293 cells to reduce forskolin-stimulated cAMP accumulation is analysed (FIG. 5). We chose concentrations of forskolin and L-baclofen that should produce a maximal effect.

[3] = system: non-transfected HEK293 cells; assay: Forskolin-stimulated cAMP formation in untransfected HEK293 cells (control); type: cell-based
[4] = system: GABAA, benzodiazepine, kainate, AMPA, NMDA receptors, strychnine independent binding site at NMDA receptors, muscarinic cholinergic, α1- and α2-adrenergic …; assay: Receptor selectivity assays at 1 μM; conditions: concentration of 1 μM
Method: […]. The incubation is terminated by filtration through GF/B Whatman glass fibre filters. […]. The compound is therefore selective for GABAB receptors. […].

[5] = biological target: GABAB receptors in membranes from rat cerebral cortex (Rattus norvegicus, UniProt Q9Z0U4); assay: biochemical; type: binding
Chain of GABAB receptors in membranes from rat cerebral cortex (Q9Z0U4 164-960 limits assumed): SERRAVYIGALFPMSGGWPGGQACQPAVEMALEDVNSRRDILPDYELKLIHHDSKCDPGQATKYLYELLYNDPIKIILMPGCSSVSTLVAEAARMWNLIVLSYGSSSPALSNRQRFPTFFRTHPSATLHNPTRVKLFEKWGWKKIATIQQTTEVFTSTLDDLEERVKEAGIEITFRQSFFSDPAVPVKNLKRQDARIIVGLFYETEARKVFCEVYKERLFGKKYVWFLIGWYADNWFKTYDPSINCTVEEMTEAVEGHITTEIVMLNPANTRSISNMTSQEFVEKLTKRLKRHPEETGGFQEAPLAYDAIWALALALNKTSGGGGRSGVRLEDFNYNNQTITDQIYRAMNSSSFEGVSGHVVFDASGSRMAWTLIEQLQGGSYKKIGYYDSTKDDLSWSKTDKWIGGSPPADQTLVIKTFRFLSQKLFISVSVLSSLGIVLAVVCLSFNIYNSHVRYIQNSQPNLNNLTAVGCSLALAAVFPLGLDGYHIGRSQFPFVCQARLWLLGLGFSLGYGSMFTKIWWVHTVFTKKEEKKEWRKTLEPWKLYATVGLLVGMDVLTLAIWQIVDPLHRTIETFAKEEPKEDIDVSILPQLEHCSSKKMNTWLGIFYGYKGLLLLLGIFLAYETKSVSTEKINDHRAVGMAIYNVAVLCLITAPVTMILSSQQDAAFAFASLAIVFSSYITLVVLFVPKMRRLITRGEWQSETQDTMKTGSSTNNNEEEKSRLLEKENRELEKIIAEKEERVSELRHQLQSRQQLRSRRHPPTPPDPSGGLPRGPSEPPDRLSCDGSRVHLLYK
Chain of GABAB receptors in membranes from rat cerebral cortex (O88871 41-940, further chain): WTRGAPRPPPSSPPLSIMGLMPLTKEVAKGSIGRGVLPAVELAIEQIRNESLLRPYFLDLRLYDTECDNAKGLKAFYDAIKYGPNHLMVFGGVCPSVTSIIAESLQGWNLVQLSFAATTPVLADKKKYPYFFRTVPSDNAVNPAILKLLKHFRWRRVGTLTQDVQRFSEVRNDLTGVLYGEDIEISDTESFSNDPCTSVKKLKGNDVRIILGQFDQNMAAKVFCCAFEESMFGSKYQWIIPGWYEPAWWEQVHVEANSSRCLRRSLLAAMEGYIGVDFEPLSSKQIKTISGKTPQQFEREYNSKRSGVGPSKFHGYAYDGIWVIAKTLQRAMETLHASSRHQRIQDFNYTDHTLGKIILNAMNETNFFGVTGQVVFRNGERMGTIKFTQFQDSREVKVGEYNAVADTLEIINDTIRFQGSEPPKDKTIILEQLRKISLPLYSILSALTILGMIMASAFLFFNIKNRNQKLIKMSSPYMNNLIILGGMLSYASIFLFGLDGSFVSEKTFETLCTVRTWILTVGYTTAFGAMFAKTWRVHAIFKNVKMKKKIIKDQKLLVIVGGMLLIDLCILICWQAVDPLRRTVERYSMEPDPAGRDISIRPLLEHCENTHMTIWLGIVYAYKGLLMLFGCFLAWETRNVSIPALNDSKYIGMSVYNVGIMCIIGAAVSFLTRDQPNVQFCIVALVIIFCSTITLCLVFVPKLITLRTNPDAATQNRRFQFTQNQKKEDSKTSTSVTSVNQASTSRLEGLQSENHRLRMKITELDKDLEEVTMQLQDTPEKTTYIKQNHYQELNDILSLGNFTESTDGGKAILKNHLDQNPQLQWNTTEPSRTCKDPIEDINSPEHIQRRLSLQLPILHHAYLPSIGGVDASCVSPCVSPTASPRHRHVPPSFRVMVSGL

NCCC[PH](=O)O [CGP 27492 (APPA), 3-aminopropyl-phosphinic acid]
competition with / displacement of [125I]CGP71872 at native receptors [1]: compete

C[C@H](NC[C@H](O)CP(=O)(O)CC1CCCCC1)c1ccc(Cl)c(Cl)c1 [CGP 54626A]
IC50 ([2]; recombinant GABABR1a expressed in COS1 cells, read-out: Inhibition of [125I]CGP 64213 binding, COS1 cells IC50): 0.0016 µM | effect on the L-baclofen inhibition of cAMP accumulation (GABABR1a; 10 μM CGP54626A (FIG. 5), 300 μM L-baclofen): antagonised | [125I]CGP71872 labelling in the presence of excess unlabelled antagonist [1]: no radioactivity is bound to the membranes | [125I]CGP71872 labelling in the presence of excess unlabelled antagonist ([1]; listed as CGP54626A): inhibited | competition with / displacement of [125I]CGP71872 at native receptors [1]: effective displacers

NC[C@H](CC(=O)O)c1ccc(Cl)cc1 [L-baclofen]
inhibition of forskolin-stimulated cAMP formation in untransfected cells [3]: does not inhibit; also recorded: No L-baclofen response

C[C@@H](NC[C@H](O)CP(=O)(O)CCCCCNC(=O)CCc1ccc(O)c(I)c1)c1cccc(C(=O)O)c1 [CGP 64213]
activity in other receptor assays [4]: inactive

CCOC(OCC)P(=O)(O)CCCN [CGP 35348]
IC50 [5]: 9.3 µM | IC50 [2]: 20 µM | competition with / displacement of [125I]CGP71872 at native receptors [1]: effective displacers

pertussis toxin
effect of preincubation on the L-baclofen response / modulation of adenylate cyclase (GABABR1a; 10 ng/ml for 15–20 h): sensitive; also recorded: completely abolishes the effect of L-baclofen
